One data set in a line: Rat brain SPECT imaging. The class given is in vivo. Here is the method:
Compound-1 SPECT brain imaging and biodistribution were examined post injection in rats. All animal procedures were performed under isoflurane anesthesia (Induction 4%, Maintenance 2% in oxygen). One group of rats was injected intravenous (iv.) with [^123I]-Compound-1 (1.67 MBq ± 0.28, n = 3). A second group was injected intraperitoneal (ip.) (4.12 MBq ± 0.56, n = 3). A third group of animals was injected iv. with Na^123I (1.53 MBq ± 0.37 SD, n = 3). Biodistribution of these compounds was studied after the SPECT imaging sessions 1 h post-injection (in the iv. groups) and 2 and 5 h post-administration in the ip. group. Rats were positioned with the brain in the center of the field of view inside a 4 detector configuration Triumph™ II X-SPECT^Ⓡ small animal PET/SPECT/CT scanner (Trifoil Imaging, Northridge Tri-Modality Imaging, Inc., Chatsworth, CA). Heart rate and breathing was monitored with sensors inside a closed animal cell (Equipment Veterinaire Minerve, Esternay) and the temperature on the heated air flow inside the cell was set to 35 °C to prevent hypothermia. […] Images were analyzed using PMOD (PMOD Technologies Ltd., Zürich). […] In addition, an average SPECT image over all time frames was calculated for each animal.

A short description of data set [1]: Stability in human serum by LC-MS. The class given is in vitro ADME. Conditions: for % of compound remaining, human serum: 37 °C. Here is the method: (§1) The stability of Compound-1 was initially investigated in saline. Compound-1 was dissolved in ethanol:Polysorbate 80:water (5:5:90) then incubated with 300 µl 0.9% NaCl at ambient temperature to give a final concentration of 6.5 mM (millimolar). Aliquots were taken at 0, 60, 120 and 1560 min, then analysed by LC–MS. Furthermore, Compound-1 was investigated in human and rat serum. Compound-1 in ethanol:Polysorbate 80:water (5:5:90) was incubated with 400 µl human and 300 µl rat serum at 37 °C to give a final concentration of 5 mM and 6.5 mM. Aliquots (40–50 µl) from previous mixtures was extracted with ice-cold acetonitrile at 0, 10, 30, 60, 120, 240 and 1320 min post-incubation. Samples were centrifuged at 13,000g for 5 min. The supernatants were analysed by LC–MS. Serum experiments were performed in triplicate. Additionally, [^123I]-Compound-1 was evaluated for in vivo stability by analyzing blood samples after 1 h post injection. The blood samples were centrifuged and the supernatant was injected on the radio-HPLC.

Data set [2] can be described thus: Stability in saline (0.9% NaCl) by LC-MS. Conditions: ambient temperature, n = 1. Type of data set: physicochemical. The method, then:
as §1, with “Aliquots were taken at 0, 60, 120 and 1560 min, then analysed by LC–MS.” left out

A further data set has as its target T1, hGnRHR (Homo sapiens, UniProt P30968).
T1 construct: host or cells: HEK293T
T1 sequence (P30968 1-328): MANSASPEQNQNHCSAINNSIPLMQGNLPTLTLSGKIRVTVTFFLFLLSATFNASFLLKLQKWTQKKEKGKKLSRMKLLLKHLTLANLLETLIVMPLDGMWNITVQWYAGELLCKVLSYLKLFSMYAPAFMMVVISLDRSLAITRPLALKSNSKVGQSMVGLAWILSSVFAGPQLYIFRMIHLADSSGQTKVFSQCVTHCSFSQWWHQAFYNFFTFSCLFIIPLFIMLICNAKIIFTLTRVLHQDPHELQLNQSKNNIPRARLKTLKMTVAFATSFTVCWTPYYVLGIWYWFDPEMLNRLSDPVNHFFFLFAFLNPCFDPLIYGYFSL
Kind of data set: Competitive binding for LHRH/GnRH by fluorescence based FLIPR-assay in HEK293T cells stably expressing GnRH receptors. The class given is cell-based. Conditions: for Ki: 5 nM LHRH agonist, Ki by cheng-prusoff equation; for IC50: competition with 5 nM LHRH agonist, read-out: hGnRHR pIC50 (converted). Here is the method:
HEK293T (division arrested cell-line, Multispan Inc. USA) cells stably expressing GnRH receptors were used to measure the competitive binding for LHRH/GnRH by a fluorescence based FLIPR-assay. Compound-1 was tested in concentrations from 50 µM to 0.5 nM with 5 nM LHRH agonist as competitor.
The Ki was determined by using the cheng-prusoff equation [13].

The nature of data set [3]: Stability in rat serum by LC-MS. The class given is in vitro ADME. Conditions: for % of compound remaining, rat serum: 37 °C. The method, then: as §1
The nature of data set [4]: In vivo stability: radio-HPLC of blood samples 1 h post injection. Conditions: rat blood samples 1 h post injection. The method, then:
as §1

The nature of data set [5]: Biodistribution in rats (gamma counter, % ID/g). Type of data set: in vivo. Conditions: rat. The method, then: Compound-1 SPECT brain imaging and biodistribution were examined post injection in rats. All animal procedures were performed under isoflurane anesthesia (Induction 4%, Maintenance 2% in oxygen). One group of rats was injected intravenous (iv.) with [^123I]-Compound-1 (1.67 MBq ± 0.28, n = 3). A second group was injected intraperitoneal (ip.) (4.12 MBq ± 0.56, n = 3). A third group of animals was injected iv. with Na^123I (1.53 MBq ± 0.37 SD, n = 3). Biodistribution of these compounds was studied after the SPECT imaging sessions 1 h post-injection (in the iv. groups) and 2 and 5 h post-administration in the ip. group. Rats were positioned with the brain in the center of the field of view inside a 4 detector configuration Triumph™ II X-SPECT^Ⓡ small animal PET/SPECT/CT scanner (Trifoil Imaging, Northridge Tri-Modality Imaging, Inc., Chatsworth, CA). Heart rate and breathing was monitored with sensors inside a closed animal cell (Equipment Veterinaire Minerve, Esternay) and the temperature on the heated air flow inside the cell was set to 35 °C to prevent hypothermia. Dynamic SPECT acquisitions for 30 and 60 min with 6–12 image frames (5 min duration) were obtained for the animals which were used for 1–2 h biodistribution studies respectively. The animals subjected to the 5 h biodistribution study were scanned after an average of 4 h and 20 min, a static SPECT of 30 min was acquired. 1.0 mm 5-multipinhole collimator (N5F65A10) and 50 mm radius of rotation (ROR). Images were reconstructed using a 20% energy window and Ordered Subset Expectation Maximization (OSEM) algorithm with 5 iterations and 8 subsets. Computed tomography (CT) was performed using 80 kVp, 2 × 2 binning, 512 projections and 1.3× magnification, immediately after SPECT imaging. The raw data were reconstructed using Filtered Back Projection. Images were analyzed using PMOD (PMOD Technologies Ltd., Zürich). Volumes of interests (VOI) representing the brain-tissue, non-brain-tissue and background regions were delineated based on the anatomical CT images, and transferred to the co-registered dynamic SPECT data. In addition, an average SPECT image over all time frames was calculated for each animal.
Animals were euthanized with an overdose of pentobarbital (ip. […]) and organs were collected, weighed and analysed for radioactivity measurements on an automatic gamma counter (Wizard^2 2480, Perkin Elmer, USA). Organ distribution was expressed as percentage of injected dose per gram for the organs selected (% ID/g).

[6] abbreviates: 120 min, mean ± SD n = 3, listed as compound 1.

SMILES strings stand for the structures. Entries after “also recorded” stand apart in the source; their conditions may differ.

This is an account of results in publication PMC6238273, “First in vivo evaluation of a potential SPECT brain radiotracer for the gonadotropin releasing hormone receptor” (BMC Research Notes, 2018).

The Ki is a dissociation constant, usually derived from enzyme kinetics or from competition with a known ligand. A low value points to tighter binding.

Regarding `CC(C)(C)c1ccc(-c2nc3c(N4CCN(C(=O)CI)CC4)cccc3[nH]2)cc1` [Compound-1], the “brain uptake in SPECT images” value in “Rat brain SPECT imaging” (iv. or ip. injection) is on record as “no uptake; also recorded: did not show any uptake”. The “% of compound remaining, human serum” value in data set [1] (0 min, 5 mM) turned out to be 100%; in data set [1] (10 min, mean ± SD n = 3), 88±1.6%; in data set [1] (30 min, mean ± SD n = 3), 74±8.1%; in data set [1] (60 min, mean ± SD n = 3), 52±1.5%; in data set [1] (120 min, mean ± SD n = 3), 23%; in data set [1] (setting [6]), 23±1.6%. In addition, the “% of compound remaining, human serum” value in data set [1] (240 min, mean ± SD n = 3) was 3±0.3%; in data set [1] (1320 min), 0%. The “decrease of compound in human serum” value in data set [1] (after 1 h, LC-MS) is listed as 50%. In addition, the “% of compound remaining, saline” value in data set [2] (0 min, 6.5 mM) is listed as 100%; in data set [2] (60 min), 46%; in data set [2] (120 min), 10%; in data set [2] (1440 min (24 h)), 2%; in data set [2] (1440 min (24 h), listed as compound 1), 1.6%. Moreover, on hGnRHR, the Ki amounted to 82 nM. The IC50 on hGnRHR is 5130 nM. In addition, the “% of compound remaining, rat serum” value in data set [3] (0 min, 6.5 mM) was 100%; in data set [3] (10 min, mean ± SD n = 3), 86±7.3%; in data set [3] (30 min, mean ± SD n = 3) it was 82±11.5%; in data set [3] (60 min, mean ± SD n = 3), 44±5.5%; in data set [3] (120 min, mean ± SD n = 3), “approximately 30%”; in data set [3] (setting [6]), 30±4.8%. In addition, the “% of compound remaining, rat serum” value in data set [3] (240 min, mean ± SD n = 3) turned out to be 8±1.6%; in data set [3] (1320 min), 0%. In addition, the “decrease of compound in rat serum” value in data set [3] (after 1 h, LC-MS) was 50%.
With `CC(C)(C)c1ccc(-c2nc3c(N4CCN(Cc5ccc6nccnc6c5)CC4)cccc3[nH]2)cc1` [WAY207024, 6-({4-[2-(4-tert-butylphenyl)-1H-benzimidazol-4-yl]piperazin-1-yl}methyl)quinoxaline, reference compound], on hGnRHR, the Ki was determined as 12.2 nM and the IC50 was 631 nM.
With `CC(C)(C)c1ccc(-c2nc3c(N4CCN(C(=O)C[123I])CC4)cccc3[nH]2)cc1` [[^123I]-Compound-1], the “SPECT VOI comparison (brain, non-brain region, background region)” value in the data set “Rat brain SPECT imaging” (semi-quantitative SPECT analysis) is given as “no significant differences”. The “detection of intact radiotracer in blood by radio-HPLC” value in data set [4] is given as “did not detect”. Besides, in data set [5] (1 h post iv. injection), the “organ distribution, brain” value is listed as 0.03 % ID/g; the “organ distribution, stomach” value is recorded as 3.6 % ID/g; the “organ distribution, testis” value is on record as 0.2 % ID/g; the “organ distribution, thyroid” value worked out at 1.2 % ID/g. Also, in data set [5] (2 h post ip. administration), the “organ distribution, stomach” value is 2.5 % ID/g and the “organ distribution, thyroid” value came to 5.8 % ID/g. Further, in data set [5] (5 h post ip. administration), the “organ distribution, stomach” value is 2 % ID/g and the “organ distribution, thyroid” value is 13.1 % ID/g.
